# Target: T1, PECT (Drosophila melanogaster, UniProt Q9VK25)
# T1 construct: pect cDNA in pMAL, N-terminal MBP fusion (tag kept), E. coli BL21 (DE3), amylose column
# Assay: LC-MS (SRM) detection of CDP-ethanolamine product
# Assay type: biochemical
# Conditions: 1 mM phosphoethanolamine, 2 mM CTP, 10 mM MgCl2, 1 mM DTT, 1 uM MBP-PECT, pH 7.7, 37 °C, 15 min
# T1 sequence (Q9VK25 1-393): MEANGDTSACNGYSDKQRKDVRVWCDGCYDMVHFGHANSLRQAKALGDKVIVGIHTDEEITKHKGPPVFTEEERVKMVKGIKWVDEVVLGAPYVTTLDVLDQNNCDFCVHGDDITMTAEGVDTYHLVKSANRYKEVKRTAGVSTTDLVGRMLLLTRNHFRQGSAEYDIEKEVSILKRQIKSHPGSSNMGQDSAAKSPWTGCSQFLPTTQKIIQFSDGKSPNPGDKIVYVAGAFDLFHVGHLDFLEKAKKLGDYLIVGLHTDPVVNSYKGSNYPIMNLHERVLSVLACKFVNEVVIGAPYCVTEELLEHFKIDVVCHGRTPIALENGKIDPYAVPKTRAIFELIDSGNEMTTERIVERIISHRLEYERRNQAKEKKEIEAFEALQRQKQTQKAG
row,Structure (SMILES),LC-MS (SRM) detection of CDP-ethanolamine product
1,Nc1ccn([C@@H]2O[C@H](COP(=O)(O)OP(=O)(O)OP(=O)(O)O)[C@@H](O)[C@H]2O)c(=O)n1 [CTP],CDP-ethanolamine was detected by the mass spectrum after incubating phosphoethanolamine and CTP with PECT
2,NCCOP(=O)(O)O [phosphoethanolamine],CDP-ethanolamine was detected by the mass spectrum after incubating phosphoethanolamine and CTP with PECT

# From PMC7592913, “PE homeostasis rebalanced through mitochondria-ER lipid exchange prevents retinal degeneration in Drosophila” (PLoS Genetics, 2020)
